# Laboratory results from patent US20170362283A1, “NISIN-BASED COMPOUNDS AND USE THEREOF IN THE TREATMENT OF BACTERIAL INFECTIONS” (UNIVERSITEIT UTRECHT HOLDING B.V., priority 2015, published 2017).
# Read-outs that look alike come from different tables or passages of the source.
# Tests used:
# [1] = test system: B. subtilis
# Description: (§1) Determining the MIC value is a standard technique well known to the skilled person, in particular the MIC value can be measured using method M07-A9 (CLSI standard, January 2012, Vol. 32, No. 2, “Methods for Dilution Antimicrobial Susceptibility Tests for Bacteria That Grow Aerobically”).
# (§2) Different microorganisms (from glycerol stock) were plated out on blood agar and incubated at 37° C. for 24 hours. A colony was selected and 2×5 mL of TSB was inoculated. The samples and a sterile control were cultured for 16-20 hours at 37° C. Comparative compound B is nisin acting as a control. […] Comparative compounds A, D and E are also control compounds not part of the present invention.
# (§3) The overnight cultures were diluted to 0.5×10^6 CFU in TSB. 50 μL of the bacterial solution was added to each well and the plates were sealed with an adhesive membrane and incubated at 37° C. for 16 hours. The next day, the plates were visually inspected for bacterial growth.
# [2] = test system: E. coli
# Description: as §1, §2, §3
# [3] = test system: S. aureus
# Description: as §1, §2, §3
# [4] = test system: M. luteus; format: cell-based
# Description: as §1
# (§4) Different microorganisms (from glycerol stock) were plated out on blood agar and incubated at 37° C. for 24 hours. A colony was selected and 2×5 mL of TSB was inoculated. The samples and a sterile control were cultured for 16-20 hours at 37° C. Comparative compound B is nisin acting as a control. Comparative compound C is vancomycin, also acting as a control. Comparative compounds A, D and E are also control compounds not part of the present invention.
# as §3
# [5] = test system: VRE 155; format: cell-based
# Description: as §1, §4, §3
# [6] = test system: MRSA USA300; format: cell-based, Staphylococcus aureus
# Description: as §1, §4, §3
# [7] = test system: MRSA WKZ2; format: cell-based, Staphylococcus aureus
# Description: as §1, §4, §3
# [8] = test system: erythrocytes; test: Hemolysis assay; conditions: human erythrocytes, 1 h, up to the highest concentration tested (64 μg/mL)
# Description: Human whole blood was centrifuged at 600×g for 15 min and levels of plasma and hematocrit were marked on the tube. Plasma was removed and the erythrocytes washed 3× with PBS (centrifuging at 600×g for 15 mins). After discarding the supernatant, the packed cells were stored on ice. 100 μL of the peptides (128 μg/mL in PBS, 2% DMSO) as well as a control solution comprised of 2% DMSO in PBS were added to the top row of a polypropylene, round-bottom 96 well plate and 50 μL of PBS to the rest of the wells. The peptides and the DMSO control solutions were then diluted serially down the rows. 200 μL of the packed cells were added to PBS (10 mL) and 50 μL of this suspension was added to each well. A column with DI water containing 0.1% Triton X-100 was used as the 100% lysis control, and the column containing the serially-diluted PBS (1.0% DMSO) control served as the 0% lysis reference. The cells were incubated at 37° C. for 1 h. After incubation the plates were centrifuged (800×g, 5 min) and 25 μL of the supernatant was added to 100 μL DI water in a flat-bottom plate (polystyrene). The absorption at 414 nm was recorded to measure the amount of free hemoglobin.
# [9] = Serum stability; format: in vitro ADME; conditions: human serum, 37° C., after 24 hours; read-out: stability in human serum, remained intact
# Description: 2 mg/mL peptide solutions were prepared in 26% DMSO in MilliQ. Duplicate samples were prepared with […] peptide solution and […] human serum, making the final DMSO concentration 2%. The samples were incubated at 37° C., and samples were taken at t=0, 1, 2, 4 and 24 hours as follows: to 100 μL serum solution, 200 μL MeOH (containing 0.075 mg/mL ethylparaben as an internal standard) was added to precipitate the proteins. The sample was vortexed briefly and allowed to stand for 10 min at RT. The samples were then centrifuged at 13,000 rpm for 5 min, and the supernatant was taken and stored at −20° C. until analysis. Each sample was analyzed by HPLC on a C4 column. The peaks were integrated and normalized to the internal standard.
# [10] = test system: thirty VRE strains
compound,measurement,setting,value
C=C1NC(=O)[C@H]([C@@H](C)CC)NC(=O)[C@H](NC(=O)C(=CC)NC(=O)[C@@H](N)[C@@H](C)CC)CSC[C@@H](C(=O)N[C@H]2C(=O)N3CCC[C@H]3C(=O)NCC(=O)N[C@H](C(=O)N[C@@H](CCCCN)C(=O)NCCCn3cc(CNC(=O)c4ccc(-c5ccc(-c6ccccc6)cc5)cc4)nn3)CS[C@H]2C)NC(=O)[C@H](CC(C)C)NC1=O [Compound (24) with R1-group (e)],MIC values B. subtilis,[1],4 µg/mL
same,MIC values E. coli,[2],>64 µg/mL
same,MIC values S. aureus,[3],8 µg/mL
same,MIC values M. luteus,[4],2 µg/mL
same,MIC values VRE 155,[5],8 µg/mL
same,MIC values MRSA USA300,[6]; USA300,8 µg/mL
same,MIC values MRSA WKZ2,[7]; WKZ2,8 µg/mL
C=C1NC(=O)[C@H]([C@@H](C)CC)NC(=O)[C@H](NC(=O)C(=CC)NC(=O)[C@@H](N)[C@@H](C)CC)CSC[C@@H](C(=O)N[C@H]2C(=O)N3CCC[C@H]3C(=O)NCC(=O)N[C@H](C(=O)N[C@@H](CCCCNC(C)=O)C(=O)NCCCCCCCCCCCC)CS[C@H]2C)NC(=O)[C@H](CC(C)C)NC1=O [Compound (20)],MIC values VRE 155,[5]; duplicate experiments,4 µg/mL
same,MIC values MRSA USA300,[6]; duplicate experiments,>64 µg/mL
same,hemolysis,[8],no detectable hemolysis
"C=C1NC(=O)[C@H]([C@@H](C)CC)NC(=O)[C@H](NC(=O)C(=CC)NC(=O)[C@@H](N)[C@@H](C)CC)CSC[C@@H](C(=O)N[C@H]2C(=O)N3CCC[C@H]3C(=O)NCC(=O)N[C@H](C(=O)N[C@@H](CCCCN)C(=O)O)CS[C@H]2C)NC(=O)[C@H](CC(C)C)NC1=O [Compound A, nisin [1-12], reference compound]",MIC values B. subtilis,[1]; duplicate experiments,>128 µg/mL
same,MIC values E. coli,[2]; duplicate experiments,>128 µg/mL
same,MIC values S. aureus,[3]; duplicate experiments,>128 µg/mL
same,MIC values M. luteus,[4]; duplicate experiments,8 to 16 µg/mL
same,MIC values VRE 155,[5]; duplicate experiments,>128 µg/mL
same,MIC values MRSA USA300,[6]; duplicate experiments,>128 µg/mL
same,MIC values MRSA WKZ2,[7]; duplicate experiments,>128 µg/mL
C=C1NC(=O)[C@H]([C@@H](C)CC)NC(=O)[C@H](NC(=O)C(=CC)NC(=O)[C@@H](N)[C@@H](C)CC)CSC[C@@H](C(=O)N[C@H]2C(=O)N3CCC[C@H]3C(=O)NCC(=O)N[C@H](C(=O)N[C@@H](CCCCN)C(=O)NCCCCCCCCCCCCCC)CS[C@H]2C)NC(=O)[C@H](CC(C)C)NC1=O [(10)],MIC values B. subtilis,[1]; duplicate experiments,4 µg/mL
same,MIC values E. coli,[2]; duplicate experiments,>64 µg/mL
same,MIC values S. aureus,[3]; duplicate experiments,16 µg/mL
same,MIC values M. luteus,[4]; duplicate experiments,1 to 2 µg/mL
same,MIC values VRE 155,[5]; duplicate experiments,4 µg/mL
same,MIC values MRSA USA300,[6]; duplicate experiments,64 µg/mL
same,MIC values MRSA WKZ2,[7]; duplicate experiments,32 µg/mL
same,"remaining at 24 h, 0.15 mg/mL",[9],> 50%
same,MIC,"[10]; VRE strain E0013, GBR, vanA",4 µg/mL
same,MIC,"[10]; VRE strain E0072, NLD, vanA",2 µg/mL
same,MIC,"[10]; VRE strain E0300, USA, vanA",8 to 16 µg/mL
same,MIC,"[10]; VRE strain E0321, FRA, vanA",2 µg/mL
same,MIC,"[10]; VRE strain E0333, ISR, vanA",4 µg/mL
same,MIC,"[10]; VRE strain E0338, ITA, vanA",4 µg/mL
same,MIC,"[10]; VRE strain E0341, GBR, vanA",4 µg/mL
same,MIC,"[10]; VRE strain E0506, AUS, vanA",8 µg/mL
same,MIC,"[10]; VRE strain E0745, NLD, vanA",4 µg/mL
same,MIC,"[10]; VRE strain E1130, USA, vanA",4 µg/mL
same,MIC,"[10]; VRE strain E1441, GRC, vanA",4 µg/mL
same,MIC,"[10]; VRE strain E1679, BRA, vanA",4 µg/mL
same,MIC,"[10]; VRE strain E1763, BEL, vanA",8 µg/mL
same,MIC,"[10]; VRE strain E2297, USA, vanA",2 µg/mL
same,MIC,"[10]; VRE strain E2359, SGP, vanB",2 µg/mL
same,MIC,"[10]; VRE strain E2365, HUN, vanB",1 µg/mL
same,MIC,"[10]; VRE strain E2373, SRB, vanA",4 µg/mL
same,MIC,"[10]; VRE strain E6016, LVA, vanA",2 to 4 µg/mL
same,MIC,"[10]; VRE strain E7312, NLD, vanA",2 µg/mL
same,MIC,"[10]; VRE strain E7314, NLD, vanB",4 µg/mL
same,MIC,"[10]; VRE strain E7319, NLD, vanA",2 µg/mL
same,MIC,"[10]; VRE strain E7329, NLD, vanA",2 µg/mL
same,MIC,"[10]; VRE strain E7401, NLD, vanB",4 µg/mL
same,MIC,"[10]; VRE strain E7403, NLD, vanB",1 µg/mL
same,MIC,"[10]; VRE strain E7413, NLD, vanA",4 µg/mL
same,MIC,"[10]; VRE strain E7424, NLD, vanB",1 to 2 µg/mL
same,MIC,"[10]; VRE strain E7464, NLD, vanB",4 µg/mL
same,MIC,"[10]; VRE strain E8218, NLD, vanB",2 µg/mL
same,MIC,"[10]; VRE strain E8235, NLD, vanB",4 µg/mL
same,MIC,"[10]; VRE strain E8237, NLD, vanA",8 µg/mL
C=C1NC(=O)[C@H]([C@@H](C)CC)NC(=O)[C@H](NC(=O)C(=CC)NC(=O)[C@@H](N)[C@@H](C)CC)CSC[C@@H](C(=O)N[C@H]2C(=O)N3CCC[C@H]3C(=O)NCC(=O)N[C@H](C(=O)N[C@@H](CCCCN)C(=O)NCCCn3cc(CCC(=O)N(CCCCCCCCCC)CCCCCCCCCC)nn3)CS[C@H]2C)NC(=O)[C@H](CC(C)C)NC1=O [Compound (24) with R1-group (b)],MIC values B. subtilis,[1],>64 µg/mL
same,MIC values E. coli,[2],>64 µg/mL
same,MIC values S. aureus,[3],>64 µg/mL
same,MIC values M. luteus,[4],8 µg/mL
